From patent US20240352010A1, “SUBSTITUTED 1,2,4-THIADIAZOLYL NICOTINAMIDES, SALTS OR N-OXIDES THEREOF AND THEIR USE AS HERBICIDALLY ACTIVE SUBSTANCES” (BayerAktiengesellschaft, priority 2021, published 2024)

How the values were obtained:
Format in all cases: in vivo
[1] = tested on: Matricaria inodora (MATIN); experiment: Herbicidal pre-emergence action, MATIN
From the text: (§1) Seeds of mono- and dicotyledonous weed plants were sown in plastic pots (double sowings with one species of mono- and one species of dicotyledonous weed plants per pot), in sandy loam, and covered with soil. The compounds according to the invention, formulated in the form of wettable powders (WP) or as emulsifiable concentrates (EC), were applied to the surface of the covering soil as an aqueous suspension or as an emulsion, with the addition of 0.5% of an additive, at an application rate of 600 litres of water per hectare (converted). Following treatment, the pots were placed in a greenhouse and kept under optimum growth conditions for the test plants. The visual grading of the damage to the test plants is carried out after ca. 3 weeks in comparison to untreated controls (herbicidal effect in percent (%): 100% effect=plants have died, 0% effect=as control plants). Seeds of mono- and dicotyledonous weed plants were sown in plastic pots (double sowings with one species of mono- and one species of dicotyledonous weed plants per pot), in sandy loam, and covered with soil. The compounds according to the invention, formulated in the form of wettable powders (WP) or as emulsifiable concentrates (EC), were applied to the surface of the covering soil as an aqueous suspension or as an emulsion, with the addition of 0.5% of an additive, at an application rate of 600 litres of water per hectare (converted). Following treatment, the pots were placed in a greenhouse and kept under optimum growth conditions for the test plants. The visual grading of the damage to the test plants is carried out after ca. 3 weeks in comparison to untreated controls (herbicidal effect in percent (%): 100% effect=plants have died, 0% effect=as control plants).

[2] = tested on: Amaranthus retroflexus (AMARE); experiment: Herbicidal pre-emergence action, AMARE
From the text: as §1

Stellaria media (STEME) [3] = experiment: Herbicidal pre-emergence action, STEME
From the text: as §1

[4] = tested on: Amaranthus retroflexus (AMARE); experiment: Herbicidal post-emergence action, AMARE
From the text: (§2) Seeds of mono- and dicotyledonous weed plants were sown in plastic pots (double sowings with one species of mono- and one species of dicotyledonous weed plants per pot), in sandy loam, covered with soil and grown under controlled growth conditions. 2 to 3 weeks after sowing, the test plants were sprayed in the single-leaf stage. The compounds according to the invention, formulated in the form of wettable powders (WP) or as emulsifiable concentrates (EC), were sprayed onto the green plant parts as an aqueous suspension or as an emulsion, with the addition of 0.5% of an additive, at an application rate of 600 litres of water per hectare (converted). The test plants were placed in the greenhouse for ca. 3 weeks under optimum growth conditions, and then the effect of the preparations is assessed visually in comparison with untreated controls (herbicidal effect in percent (%): 100% effect=plants have died, 0% effect=as control plants). […]

Kochia scoparia (KCHSC) [5] = experiment: Herbicidal post-emergence action, KCHSC
From the text: as §2

Stellaria media (STEME) [6] = experiment: Herbicidal post-emergence action, STEME
From the text: as §2

Veronica persica (VERPE) = experiment: Herbicidal post-emergence action, VERPE
From the text: as §2

Setaria viridis (SETVI) [7] = experiment: Herbicidal pre-emergence action, SETVI
From the text: as §1

[8] = tested on: Matricaria inodora (MATIN); experiment: Herbicidal post-emergence action, MATIN
From the text: as §2

Setaria viridis (SETVI) [9] = experiment: Herbicidal post-emergence action, SETVI; conditions: 1280 g/ha, assessed visually after ca. 3 weeks vs untreated controls (Table B7)
From the text: as §2

Kochia scoparia (KCHSC) [10] = experiment: Herbicidal pre-emergence action, KCHSC; conditions: 1280 g/ha, visual grading after ca. 3 weeks vs untreated controls (Table A4)
From the text: as §1

Lolium rigidum (LOLRI) = experiment: Herbicidal pre-emergence action, LOLRI
From the text: as §1

Poa annua (POAAN) [11] = experiment: Herbicidal pre-emergence action, POAAN
From the text: as §1

[12] = tested on: Abutilon theophrasti (ABUTH); experiment: Herbicidal post-emergence action, ABUTH; conditions: 1280 g/ha, assessed visually after ca. 3 weeks vs untreated controls (Table B1)
From the text: (§3) Seeds of mono- and dicotyledonous weed plants were sown in plastic pots (double sowings with one species of mono- and one species of dicotyledonous weed plants per pot), in sandy loam, covered with soil and grown under controlled growth conditions. 2 to 3 weeks after sowing, the test plants were sprayed in the single-leaf stage. The compounds according to the invention, formulated in the form of wettable powders (WP) or as emulsifiable concentrates (EC), were sprayed onto the green plant parts as an aqueous suspension or as an emulsion, with the addition of 0.5% of an additive, at an application rate of 600 litres of water per hectare (converted). The test plants were placed in the greenhouse for ca. 3 weeks under optimum growth conditions, and then the effect of the preparations is assessed visually in comparison with untreated controls (herbicidal effect in percent (%): 100% effect=plants have died, 0% effect=as control plants).

[13] = tested on: Digitaria sanguinalis (DIGSA); experiment: Herbicidal post-emergence action, DIGSA; conditions: 1280 g/ha, assessed visually after ca. 3 weeks vs untreated controls (Table B12)
From the text: as §3

Poa annua (POAAN) [14] = experiment: Herbicidal post-emergence action, POAAN
From the text: as §2

[15] = tested on: Echinochloa crus-galli (ECHCG); experiment: Herbicidal post-emergence action, ECHCG; conditions: 1280 g/ha, assessed visually after ca. 3 weeks vs untreated controls (Table B3)
From the text: as §2

[16] = 320 g/ha, visual grading after ca. 3 weeks vs untreated controls (Table C3)
[17] = 1280 g/ha, visual grading after ca. 3 weeks vs untreated controls (Table A6)
[18] = 1280 g/ha, visual grading after ca. 3 weeks vs untreated controls (Table A11)
[19] = 320 g/ha, visual grading after ca. 3 weeks vs untreated controls (Table C6)
[20] = 1280 g/ha, visual grading after ca. 3 weeks vs untreated controls (Table A9)
[21] = 1280 g/ha, assessed visually after ca. 3 weeks vs untreated controls (Table B11)
[22] = 1280 g/ha, assessed visually after ca. 3 weeks vs untreated controls (Table B4)
[23] = 1280 g/ha, assessed visually after ca. 3 weeks vs untreated controls (Table B9)
[24] = 1280 g/ha, assessed visually after ca. 3 weeks vs untreated controls (Table B10)
[25] = 1280 g/ha, visual grading after ca. 3 weeks vs untreated controls (Table A8)
[26] = 320 g/ha, assessed visually after ca. 3 weeks vs untreated controls (Table D6)
[27] = 1280 g/ha, assessed visually after ca. 3 weeks vs untreated controls (Table B6)
[28] = 320 g/ha, assessed visually after ca. 3 weeks vs untreated controls (Table D4)
[29] = 1280 g/ha, visual grading after ca. 3 weeks vs untreated controls (Table A5)
[30] = 1280 g/ha, visual grading after ca. 3 weeks vs untreated controls (Table A7)
[31] = 1280 g/ha, assessed visually after ca. 3 weeks vs untreated controls (Table B8)

SMILES	herbicidal effect in percent, MATIN [1, 16] [%]	herbicidal effect in percent, MATIN [1, 17] [%]	herbicidal effect in percent, AMARE [2, 18] [%]	herbicidal effect in percent, STEME (Stellaria media (STEME) [3]; [19]) [%]	herbicidal effect in percent, STEME (Stellaria media (STEME) [3]; [20]) [%]	herbicidal effect in percent, AMARE [4, 21] [%]	herbicidal effect in percent, KCHSC (Kochia scoparia (KCHSC) [5]; [22]) [%]	herbicidal effect in percent, STEME (Stellaria media (STEME) [6]; [23]) [%]	herbicidal effect in percent, VERPE (Veronica persica (VERPE); [24]) [%]	herbicidal effect in percent, SETVI (Setaria viridis (SETVI) [7]; [25]) [%]	herbicidal effect in percent, AMARE [4, 26] [%]	herbicidal effect in percent, MATIN [8, 27] [%]	herbicidal effect in percent, KCHSC (Kochia scoparia (KCHSC) [10]) [%]	herbicidal effect in percent, POAAN (Poa annua (POAAN) [11]; [30]) [%]	herbicidal effect in percent, POAAN (Poa annua (POAAN) [14]; [31]) [%]	also measured
COc1nccc(C2CC2(F)F)c1C(=O)Nc1ncns1 (stereo not shown) [Example I-001, 4-(2,2-difluorocyclopropyl)-2-methoxy-N-(1,2,4-thiadiazol-5-yl)pyridine-3-carboxamide]	90	90	–	–	–	–	–	–	–	–	–	–	–	–	–	–
O=C(Nc1ncns1)c1c(C2CC2(F)F)ccnc1F (stereo not shown) [Example I-002, 4-(2,2-difluorocyclopropyl)-2-fluoro-N-(1,2,4-thiadiazol-5-yl)pyridine-3-carboxamide]	90	100	100	90	90	90	90	90	90	–	–	–	–	–	–	–
CC1CC1c1ccnc(Cl)c1C(=O)Nc1ncns1 (stereo not shown) [Example I-004]	–	90	100	–	90	100	90	100	90	90	100	100	–	–	–	herbicidal effect in percent, SETVI (Setaria viridis (SETVI) [9]): 100%; herbicidal effect in percent, STEME (Stellaria media (STEME) [6]; [28]): 90%
O=C(Nc1ncns1)c1c(C2CC2)ccnc1C(F)(F)F [Example I-006]	90	100	90	100	100	100	100	100	90	90	90	–	90	90	90	herbicidal effect in percent, LOLRI (Lolium rigidum (LOLRI); 320 g/ha, visual grading after ca. 3 weeks vs untreated controls (Table C2)): 90%; herbicidal effect in percent, LOLRI (Lolium rigidum (LOLRI); [29]): 90%; herbicidal effect in percent, POAAN (Poa annua (POAAN) [11]; 320 g/ha, visual grading after ca. 3 weeks vs untreated controls (Table C4)): 90%; herbicidal effect in percent, ABUTH [12]: 90%; herbicidal effect in percent, DIGSA [13]: 90%; herbicidal effect in percent, KCHSC (Kochia scoparia (KCHSC) [5]; dosage printed 1280 g/ha in Table D1, assessed visually after ca. 3 weeks vs untreated controls): 90%; herbicidal effect in percent, STEME (Stellaria media (STEME) [6]; dosage printed 1280 g/ha in Table D4, assessed visually after ca. 3 weeks vs untreated controls): 90%
COc1nccc(C2CC2)c1C(=O)Nc1ncns1 [Example I-007]	–	–	100	90	90	–	–	–	–	–	–	–	–	90	–	–
O=C(Nc1ncns1)c1cnccc1C1CC1 [Example I-008]	–	–	100	90	90	100	90	100	90	–	90	100	90	90	90	herbicidal effect in percent, AMARE ([2]; 320 g/ha, visual grading after ca. 3 weeks vs untreated controls (Table C8)): 90%
C=C(C)c1ccnc(Cl)c1C(=O)Nc1ncns1 [Example I-009]	–	100	–	–	90	90	–	90	–	100	–	–	–	–	–	herbicidal effect in percent, SETVI (Setaria viridis (SETVI) [7]; 320 g/ha, visual grading after ca. 3 weeks vs untreated controls (Table C5)): 90%
O=C(Nc1nc(Br)ns1)c1c(C2CC2)ccnc1Cl [Example I-010]	90	100	90	–	100	90	–	90	90	–	–	90	90	–	90	herbicidal effect in percent, LOLRI (Lolium rigidum (LOLRI); [29]): 90%; herbicidal effect in percent, ECHCG [15]: 90%; herbicidal effect in percent, MATIN ([8]; 320 g/ha, assessed visually after ca. 3 weeks vs untreated controls (Table D2)): 90%; herbicidal effect in percent, POAAN (Poa annua (POAAN) [14]; 320 g/ha, assessed visually after ca. 3 weeks vs untreated controls (Table D3)): 90%; herbicidal effect in percent, STEME (Stellaria media (STEME) [6]; [28]): 90%; herbicidal effect in percent, VERPE (Veronica persica (VERPE); 320 g/ha, assessed visually after ca. 3 weeks vs untreated controls (Table D5)): 90%
Cc1nsc(NC(=O)c2c(C3CC3)ccnc2Cl)n1 [Example I-011]	100	100	–	–	90	–	–	90	90	–	–	–	–	–	–	–
